Laboratory results from patent publication EP0049913A2, “New ethenylimidazole derivatives, processes for their preparation and pharmaceutical compositions containing them; intermediates, useful in their preparation and a process for the preparation thereof” (GIST-BROCADES N.V., priority 1980, dated 1982).
Converted amounts (≈) assume the structure as drawn. Where a name gives a salt, the structure may show the parent alone. Read-outs that look alike come from different tables or passages of the source.

What was measured:
Candida albicans = assay: agar dilution test, Candida albicans; type: cell-based; conditions: for Potency Ratio (P.R.) MIC 50 / Potency Ratio (P.R.) MIC 90: ratio to activity of miconazol (= 1)
Procedure: (§1) The compounds of the invention were tested in vitro and in vivo. The in vitro activities were determined by means of the usual agar dilution test. The results after two and five days were expressed as MIC 50 and MIC 90, i.e. the minimum concentrations giving complete inhibition of 50% or 90% of the strains tested in […] and as Potency Ratio (P.R.), i.e. the ratio between the activity of the test compound and the activity of miconazol (= 1).

[1] = system: Trichophyton mentagrophytes strain R 177; assay: method C: experimental dermatophytic infection in guinea pigs; type: in vivo; conditions: local treatment, 2% in Plastibase, twice daily for 10 days; scored on 14th day; grades 1-4; untreated animals 4
Procedure: C. Testing of compounds against experimental dermatophytic infection. (Trichophyton mentagrophytes)
Out-bred blanco TNO female guinea pigs, five animals per group, weighing + 350 g, were prepared by depilation high in the middle of the back over an area 2.5 cm in diameter.
Inoculum was prepared from a culture of Trichophyton mentagrophytes strain R 177 on Mycological Agar. The harvested mycelial mat was diluted in a 20% dextrose solution in water and the suspension was smeared over the depilated area.
Local treatment with 2% concentration of the antimycotic in Plastibase started 72 hours after infection and concurrently the application of vehiculum (Plastibase) to the infected animals was initiated. The application was continued for 10 days and consisted of two applications daily of a measured quantity of ointment to the infected area.
Scoring of lesions and the final check was made on the 14th day after the infection was initiated. The lesions were graded as to the following parameters: • 1 = slight whitish scaling, with erythema • 2 = slight whitish or light yellow scaling with solitary haemorrhagias • 3 = thick whitish-yellow crust or scab • 4 = haemorrhagic ulcer or giant haemorrhagic thick scutula (crust).
The final results were recorded as the average of lesion intensities (A.L.I.) for each experimental group (treated with either test compound or reference compound and untreated control).

[2] = system: Candida albicans strain A 7; assay: method A: systemic infection with Candida albicans in mice; type: in vivo; conditions: three doses daily for 3 days, control animals = 1
Procedure: A. Testing of compounds against systemic infection with Candida albicans in mice.
Female Swiss SPF mice, weighing […], ten animals per group, were challenged intravenously with 0.5 ml Candida albicans strain A 7 suspension containing sufficient yeast cells to kill 50% of the untreated animals within 5 days. The treatment consisted of three doses daily administered for 3 days either orally or intraperitoneally. Infected, non treated mice served as controls for mortality. The number of mice surviving the challenge was recorded daily and the ratio between the "median survival duration (days)" of the treated and untreated mice was determined, the survival duration of the control animals being graded as 1 (IMSD = Index Median Survival Duration).

Trichophyton spp. = assay: agar dilution test, Trichophyton spp.; type: cell-based; conditions: 5 d, ratio to activity of miconazol (= 1)
Procedure: as §1

[3] = system: Candida albicans strain A 7; assay: method B: vaginitis candidamycetica in mice (vaginal reduction); type: in vivo; conditions: clotrimazol = 100%
Procedure: Female Swiss SPF mice, weighing 19-21 g, fifteen animals per group, following an intramuscular premedication by Dimenformon prolongatum, were inoculated intravaginally with +5.105 CFU of Candida albicans strain A 7, harvested from a culture on Mycological Agar and suspended in physiological saline.
The treatment commenced 72 hours after infection when the candidiasis had reached its peak. A four day local treatment period was employed, consisting of two applications daily of 0.02 ml of antimycotics in Plastibase intravaginally. Alternatively, the test compound was administered orally in three doses daily for three days.
On the seventh day after infection the mice were killed, the vagina was excised and homogenized in saline and cultivated on Mycological Agar. The yeast cells were then counted and expressed as CFU/vagina. Results were analysed statistically using the T-test. The results were compared with those obtained with clotrimazol, the action of which was considered as 100%.

[4] = 48 h, after 2 d, complete inhibition of 50% of the strains tested, read-out: MIC 50
[5] = 48 h, after 2 d, complete inhibition of 90% of the strains tested, read-out: MIC 90
[6] = 120 h, after 5 d, complete inhibition of 50% of the strains tested, read-out: MIC 50
[7] = 120 h, after 5 d, complete inhibition of 90% of the strains tested, read-out: MIC 90
[8] = local intravaginal treatment in Plastibase, two applications daily for four days
[9] = p.o., three doses daily for three days

SMILES | MIC50 (Candida albicans; [4]) | MIC90 (Candida albicans; [5]) | Potency Ratio (P.R.) MIC 50 (Candida albicans; 2 d) | Potency Ratio (P.R.) MIC 90 (Candida albicans; 2 d) | MIC50 (Candida albicans; [6]) | MIC90 (Candida albicans; [7]) | Potency Ratio (P.R.) MIC 50 (Candida albicans; 5 d) | Potency Ratio (P.R.) MIC 90 (Candida albicans; 5 d) | A.L.I. (average of lesion intensities) [1] | IMSD (Index Median Survival Duration) ([2]; i.p.) | IMSD (Index Median Survival Duration) ([2]; p.o.) | Potency Ratio (P.R.) MIC 50 (Trichophyton spp.) | Potency Ratio (P.R.) MIC 90 (Trichophyton spp.) | vag.red. % [3, 8] | MIC50 (Candida albicans; 48 h) | MIC90 (Candida albicans; 48 h) | MIC50 (Candida albicans; 120 h) | MIC90 (Candida albicans; 120 h) | vag.red. % [3, 9]
CCCC(=Cn1ccnc1)c1ccc(Cl)cc1Cl.Cl [I, 1-[2-(2,4-dichlorophenyl)-1-pentenyl]-1H-imidazol hydrochloride] | 3 ng/mL | 8 ng/mL | 1.0 | 1.2 | 4 ng/mL | 9 ng/mL | 1.0 | 0.7 | 0 | 1.4 | 3.0 | 35.3 | 13.9 | 35% |  |  |  |  | 
CC(C)(C)C(=Cn1ccnc1)c1ccc(Cl)cc1Cl.O=[N+]([O-])O [IV, 1-[2-(2,4-dichlorophenyl)-3,3-dimethyl-1-butenyl]-1H-imidazole nitrate] |  |  | 0.7 | 0.9 |  |  | 0.5 | 0.5 | 0 | 5.1 | 3.1 | 15.1 | 4.1. | 59% | 3 ng/mL | 5 ng/mL | 5 ng/mL | 11 ng/mL | 24%
CCC(C)C(=Cn1ccnc1)c1ccc(Cl)cc1Cl.Cl (stereo not shown) [III, 1-[2-(2,4-Dichlorophenyl)-3-methyl-1-pentenyl]-1H-imidazole hydrochloride] | 5 ng/mL | 10 ng/mL | 0.7 | 0.9 | 6 ng/mL | 11 ng/mL | 0.7 | 1.2 | 0 | 3.5 | 4.1 | 1.7 | 0.8 | 136% |  |  |  |  | 
Clc1ccc(C(=Cn2ccnc2)C2CCCCC2)cc1 [V, 1-[2-(4-chlorophenyl)-2-cyclohexylethenyl] -lH-imidazole hydrochloride] | 3 ng/mL | 8 ng/mL | 1.3 | 1.0 | 5 ng/mL | 10 ng/mL | 1.1 | 1.1 |  | 3.5 | 4.1 | 0.8 | 0.6 |  |  |  |  |  | 150 (p.o.) %
Clc1ccc(C(=Cn2ccnc2)C2CCCCC2)c(Cl)c1 [VI, 1-[2-cyclohexyl-2-(2,4-dichlorophenyl)ethenyl]-IH-imidazole hydrochloride] | 4 ng/mL | 8 ng/mL | 0.9 | 0.7 | 5 ng/mL | 11 ng/mL | 0.8 | 0.6 | 0.4 | 3.7 | 3.9 | 1.9 | 1.0 | 97% |  |  |  |  | 52%
CCC(C)C(=Cn1ccnc1)c1ccc(Cl)cc1 (stereo not shown) [II, 1-[2-(4-chlorophenyl)-3-methyl-1-pentenyl] -lH-imidazole] | 2 ng/mL (≈ 0.00767 µM) | 5 ng/mL (≈ 0.0192 µM) | 1.7 | 1.7 | 4 ng/mL (≈ 0.0153 µM) | 6 ng/mL (≈ 0.023 µM) | 1.2 | 1.9 | 0 | 3.8 | 4.6 | 2.8 | 2.1 | 98% |  |  |  |  | 
